Reference: patent US20230014181A1, “CULTURE SYSTEM AND METHODS FOR IMPROVED MODELING OF NEUROLOGICAL CONDITIONS” (Genentech, Inc., priority 2021, published 2023)
Like-named read-outs stand apart in the source and are kept apart here.

Tests used:
[1] = tested on: human iPSC neurons, astrocytes and microglia treated with 5 μM sAβ42s; experiment: Focused small molecule screen, triple culture (neuron, astrocyte, microglia), rescue from sAβ42s toxicity; type: cell-based
Procedure: (§1) FIGS. 11A-11D show synapse % rescue versus MAP2% rescue (FIGS. 11A-11B) and beta III tubulin % rescue versus MAP2% rescue (FIGS. 11C-11D), in neurons and astrocytes (FIGS. 11A and 11C) or neurons, astrocytes, and microglia (FIGS. 11B and 11D) treated with 5 μM sAβ42s and small molecules from a focused screen of known neuroprotective agents at multiple concentrations (50 μM, 25 μM, 12.5 μM and 6.25 μM (double culture), 50 μM, 12.5 μM, 3.1 μM and 0.78 μM (triple culture). Small molecules that prevented toxicity in dendrites (MAP2), synapses (Synapsin 1/2), cell count (CUX2), or axons ([…]) at or above 30% were considered hits (red dotted line).
Frozen cells were thawed and immediately seeded at a density of 8,000 cells/well of a 384-well plate onto 8-week old neuron-astrocyte co-culture in Microglia media (BrainPhys™ neuronal media (Stem Cell Technologies) supplemented with 1× B27 with vitamin A, 1×N2 Plus Media Supplement (R&D Systems), 20 ng/mL BDNF, 20 ng/mL GDNF, 1 mM creatine, 200 nM L-ascorbic acid, 1 μg/mL mouse laminin, 0.5 mM GlutaMAX™ (Thermofisher), 0.5× penicillin-streptomycin, 1× normocin, 5 ng/mL TGF-β, 100 ng/mL human IL-34, 1.5 μg/mL cholesterol, 1 ng/mL gondoic acid, 100 ng/mL oleic acid, 460 μM thioglycerol, 1× insulin-transferrin-selenium, 25 ng/mL rhM-CSF, 5.4 μg/mL human insulin solution).
(§2) In double (neuron, astrocyte) and triple (neuron, astrocyte, microglia) cultures, each small molecule listed in Table 1 was tested in the AD model paradigm at up to four concentrations. Molecules that characterized ≥30% rescue in any of the four measurements of dendrites area (MAP2), synapses count (synapsin 1/2), or cell count (CUX2), or axon area (Beta III Tubulin; “BT3”)) were classified as hits (FIGS. 11A-11D, Table 2, and Table 3).

[2] = tested on: human iPSC neurons and astrocytes treated with 5 μM sAβ42s; experiment: Focused small molecule screen, double culture (neuron, astrocyte), rescue from sAβ42s toxicity, high content imaging; type: cell-based; conditions: for % B3T rescue / % Cux2 rescue / % MAP2 rescue / % Synapse rescue / percent rescue from sAβ42s toxicity at 50 µM: double culture, 5 μM sAβ42s; for percent rescue from sAβ42s toxicity at 50 µM: Homo sapiens, iPSC
Procedure: as §1
Neurons from both NSC lines were evaluated by immunofluorescence staining. Briefly, cells were fixed with 4% PFA and 4% sucrose at room temperature for 20 minutes using Bravo automation. Fixed cells were then washed 2 times with PBS using Biotek 406 microplate washer (Beckman Coulter), followed by permeabilization and blocking by incubation with a solution containing 1×PBS, 0.1% Triton X-100, 2% donkey serum, and 1% BSA at room temperature for 30 minutes. Blocking solution was removed and cells were incubated with primary antibodies in blocking solution overnight at 4° C. After washing 6 times with PBS on Biotek 406 cell plate washer (Beckman Coulter), cells were then incubated with fluorophore-conjugated secondary antibodies for 1 hour at room temperature in the dark to avoid photobleaching. Cells were then washed 6 more times in with PBS before imaging. Fluorescent images were captured using IN Cell 6000 confocal microscope (GE Healthcare Life Sciences). The image analysis was performed with IN Cell 6000 analysis software.
Prior to experimentation, media volume in wells containing neurons was equalized with liquid handling automation (Bravo) in order to ensure precise control of concentrations. All Aβ42 oligomers, anti-Aβ, small molecules, inflammatory cytokines were prepared at 10× concentration and added to Neuronal Culture Media at an appropriate volume. For the repeated dosing experiments, the media were refreshed 50% at each dosing first, before adding Aβ42 oligomers, and/or anti-Aβ antibody at the specified final concentration.
as §2

| Structure (SMILES) | % B3T rescue ([1]; 3.13 μM compound) | % MAP2 rescue ([1]; 3.13 μM compound) | % Synapse rescue ([1]; 3.13 μM compound) | % B3T rescue ([1]; 12.50 μM compound) | % MAP2 rescue ([1]; 12.50 μM compound) | % Synapse rescue ([1]; 12.50 μM compound) | % B3T rescue ([1]; 50.00 μM compound) | % MAP2 rescue ([1]; 50.00 μM compound) | % Synapse rescue ([1]; 50.00 μM compound) | % B3T rescue ([2]; 50 μM compound) | % Cux2 rescue ([2]; 50 μM compound) | % MAP2 rescue ([2]; 50 μM compound) | % Synapse rescue ([2]; 50 μM compound) | % B3T rescue ([2]; 6.25 μM compound) | % Cux2 rescue ([2]; 6.25 μM compound) | % MAP2 rescue ([2]; 6.25 μM compound) | % Synapse rescue ([2]; 6.25 μM compound) | % B3T rescue ([2]; 12.5 μM compound) | % Cux2 rescue ([2]; 12.5 μM compound) | % MAP2 rescue ([2]; 12.5 μM compound) | also measured |
| --- | --- | --- | --- | --- | --- | --- | --- | --- | --- | --- | --- | --- | --- | --- | --- | --- | --- | --- | --- | --- | --- |
| N#C/C(=C\c1ccc(O)c(O)c1)C(=O)OCCc1cccs1 [2-TEDC] | 40% | 22% | 15% | 43% | 25% | 17% | 73% | 48% | 40% | 31% | 16% | 22% | 10% |  |  |  |  |  |  |  |  |
| O=c1cc(-c2ccccc2)oc2c(O)c(O)ccc12 [7,8-Dihydroxyflavone] |  |  |  |  |  |  |  |  |  |  |  |  |  |  |  |  |  |  |  |  | percent rescue from sAβ42s toxicity at 50 µM ([2]; 50 μM compound, read-out: % B3T rescue): -14%; percent rescue from sAβ42s toxicity at 50 µM ([2]; 50 μM compound, read-out: % Cux2 rescue): 42%; percent rescue from sAβ42s toxicity at 50 µM ([2]; 50 μM compound, read-out: % MAP2 rescue): 6%; percent rescue from sAβ42s toxicity at 50 µM ([2]; 50 μM compound, read-out: % Synapse rescue): -2% |
| Cc1ccc2c(c1)C(=O)[C@]1(O)CCN(c3ccccc3)C1=N2 [(S)-(−)-Blebbistatin] |  |  |  |  |  |  | 36% | 24% | 20% | 49% | 23% | 34% | 12% | 41% | 10% | 21% | 19% | 34% | 3% | 25% | % Synapse rescue ([2]; 12.5 μM compound): 15%; % B3T rescue ([2]; 25 μM compound): 38%; % Cux2 rescue ([2]; 25 μM compound): 5%; % MAP2 rescue ([2]; 25 μM compound): 34%; % Synapse rescue ([2]; 25 μM compound): 13% |
| O=C(Nc1cccc(Br)c1)c1cccc(S(=O)(=O)N2CCCCCC2)c1 [AK 7] | 77% | 18% | 13% | 81% | 53% | 42% | 56% | 28% | 17% | 42% | 0% | −17% | −5% |  |  |  |  |  |  |  | % B3T rescue ([1]; 0.78 μM compound): 79%; % MAP2 rescue ([1]; 0.78 μM compound): 1%; % Synapse rescue ([1]; 0.78 μM compound): 3% |
| N#CC(c1ccnc(NCCc2cccnc2)n1)c1nc2ccccc2s1 (stereo not drawn) [AS601245] | 18% | 54% | 17% | 26% | 74% | 26% | 44% | 95% | 45% | −16% | 123% | 64% | 19% | 14% | 9% | 49% | 37% | 20% | 13% | 67% | % Synapse rescue ([2]; 12.5 μM compound): 57%; % B3T rescue ([2]; 25 μM compound): 11%; % Cux2 rescue ([2]; 25 μM compound): 32%; % MAP2 rescue ([2]; 25 μM compound): 73%; % Synapse rescue ([2]; 25 μM compound): 36%; protection in focused screens ([2]; double and triple cultures): protective to a lesser extent |
